Data from patent publication US20240174618A1, “SUBSTITUTED (2-HETEROARYLOXYPHENYL)SULFONATES, SALTS THEREOF AND THEIR USE AS HERBICIDAL AGENTS” (Bayer Aktiengesellschaft, priority 2021, published 2024).

Tests used:
Assay type in all cases: in vivo
Viola tricolor (VIOTR) [1] = test: C. Herbicidal pre-emergence efficacy, VIOTR
Source text: (§1) Seeds of monocotyledonous and dicotyledonous weed plants and crop plants were placed in plastic or organic planting pots and covered with soil. The compounds of the invention, formulated in the form of wettable powders (WP) or as emulsion concentrates (EC), were then applied to the surface of the covering soil as aqueous suspension or emulsion with addition of 0.5% additive at a water application rate equivalent to 600 l/ha (converted). After the treatment, the pots were placed in a greenhouse and kept under good growth conditions for the test plants. After about 3 weeks, the efficacy of the preparations was scored visually in comparison with untreated controls as percentages. For example, • 100% efficacy=plants have died, • 0% efficacy=like untreated control plants.
(§2) Tables C1a to C14b below show the effects of selected compounds of the general formula (I) according to table 1 on various harmful plants at an application rate corresponding to 320 g/ha or less, which were obtained by the experimental procedure mentioned above.

[2] = system: Echinochloa crus-galli (ECHCG); test: C. Herbicidal pre-emergence efficacy, ECHCG; settings: scored after about 3 weeks
Source text: as §1, §2

Veronica persica (VERPE) [3] = test: C. Herbicidal pre-emergence efficacy, VERPE; settings: scored after about 3 weeks
Source text: as §1, §2

[4] = system: Polygonum convolvulus (POLCO); test: C. Herbicidal pre-emergence efficacy, POLCO; settings: scored after about 3 weeks
Source text: as §1, §2

Lolium rigidum (LOLRI) [5] = test: C. Herbicidal pre-emergence efficacy, LOLRI; settings: 320 g/ha, scored after about 3 weeks
Source text: as §1, §2

[6] = system: Abutilon theophrasti (ABUTH); test: C. Herbicidal pre-emergence efficacy, ABUTH; settings: scored after about 3 weeks
Source text: as §1, §2

[7] = system: Polygonum convolvulus (POLCO); test: E. Herbicidal post-emergence efficacy, POLCO; settings: application rate 320 g/ha
Experimental: (§3) Seeds of monocotyledonous and dicotyledonous weeds and crop plants were placed in sandy loam in plastic or organic planting pots, covered with soil and cultivated in a greenhouse under controlled growth conditions. 2 to 3 weeks after sowing, the test plants were treated at the one-leaf stage. The compounds of the invention, formulated in the form of wettable powders (WP) or as emulsion concentrates (EC), were then sprayed onto the green parts of the plants as aqueous suspension or emulsion with addition of 0.5% additive at a water application rate of 600 l/ha (converted). After the test plants had been kept in the greenhouse under optimum growth conditions for about 3 weeks, the activity of the preparations was rated visually in comparison to untreated controls.
(§4) For example, • 100% efficacy=plants have died, • 0% action=like untreated control plants.
(§5) Tables E1a to E12b below show the effects of selected compounds of the general formula (I) according to table 1 on various harmful plants at an application rate corresponding to 320 g/ha or less, which were obtained by the experimental procedure mentioned above.

Viola tricolor (VIOTR) [8] = test: E. Herbicidal post-emergence efficacy, VIOTR
Experimental: as §3, §4, §5

Setaria viridis (SETVI) [9] = test: C. Herbicidal pre-emergence efficacy, SETVI; settings: scored after about 3 weeks
Source text: as §1, §2

Glycine max (GLXMA) = test: D. Pre-emergence effect on useful plants, GLXMA; settings: useful plant, application rate 80 g/ha
Source text: as §1
(§6) Tables D1a to D5b below show the effects of selected compounds of the general formula (I) according to table 1 on various useful plants at an application rate corresponding to 320 g/ha or less, which were obtained by the experimental procedure mentioned above.

[10] = system: Amaranthus retroflexus (AMARE); test: C. Herbicidal pre-emergence efficacy, AMARE; settings: scored after about 3 weeks
Source text: as §1, §2

[11] = system: Abutilon theophrasti (ABUTH); test: E. Herbicidal post-emergence efficacy, ABUTH
Experimental: as §3, §4, §5

Lolium rigidum (LOLRI) [12] = test: E. Herbicidal post-emergence efficacy, LOLRI; settings: application rate 320 g/ha
Experimental: as §3, §4, §5

[13] = system: Matricaria inodora (MATIN); test: C. Herbicidal pre-emergence efficacy, MATIN; settings: 320 g/ha, scored after about 3 weeks
Source text: as §1, §2

[14] = system: Triticum aestivum (TRZAS); test: F. Post-emergence effect on useful plants, TRZAS; settings: useful plant
Experimental: as §3, §4
(§7) Tables F1a to F4 below show the effects of selected compounds of the general formula (I) according to table 1 on various useful plants at an application rate corresponding to 320 g/ha or less, which were obtained by the experimental procedure mentioned above.

[15] = system: Alopecurus myosuroides (ALOMY); test: E. Herbicidal post-emergence efficacy, ALOMY; settings: application rate 320 g/ha
Experimental: as §3, §4, §5

Veronica persica (VERPE) [16] = test: E. Herbicidal post-emergence efficacy, VERPE
Experimental: as §3, §4, §5

[17] = system: Echinochloa crus-galli (ECHCG); test: E. Herbicidal post-emergence efficacy, ECHCG
Experimental: as §3, §4, §5

[18] = system: Alopecurus myosuroides (ALOMY); test: C. Herbicidal pre-emergence efficacy, ALOMY; settings: 320 g/ha, scored after about 3 weeks
Source text: as §1, §2

Oryza sativa (ORYSA) = test: D. Pre-emergence effect on useful plants, ORYSA; settings: useful plant, application rate 80 g/ha
Source text: as §1, §6

[19] = system: Amaranthus retroflexus (AMARE); test: E. Herbicidal post-emergence efficacy, AMARE
Experimental: as §3, §4, §5

Setaria viridis (SETVI) [20] = test: E. Herbicidal post-emergence efficacy, SETVI; settings: application rate 320 g/ha
Experimental: as §3, §4, §5

Avena fatua (AVEFA) = test: C. Herbicidal pre-emergence efficacy, AVEFA; settings: 320 g/ha, scored after about 3 weeks
Source text: as §1, §2

Zea mays (ZEAMX) [21] = test: F. Post-emergence effect on useful plants, ZEAMX; settings: useful plant, application rate 80 g/ha
Experimental: as §3, §4, §7

[22] = system: Pharbitis purpurea (PHBPU); test: E. Herbicidal post-emergence efficacy, PHBPU
Experimental: as §3, §4, §5

Kochia scoparia (KCHSC) [23] = test: E. Herbicidal post-emergence efficacy, KCHSC
Experimental: as §3, §4, §5

[24] = system: Triticum aestivum (TRZAS); test: D. Pre-emergence effect on useful plants, TRZAS; settings: useful plant, application rate 80 g/ha
Source text: as §1, §6

Kochia scoparia (KCHSC) [25] = test: C. Herbicidal pre-emergence efficacy, KCHSC; settings: application rate 320 g/ha
Source text: as §1, §2

[26] = system: Digitaria sanguinalis (DIGSA); test: C. Herbicidal pre-emergence efficacy, DIGSA; settings: 320 g/ha, scored after about 3 weeks
Source text: as §1, §2

Zea mays (ZEAMX) [27] = test: D. Pre-emergence effect on useful plants, ZEAMX; settings: useful plant, application rate 80 g/ha
Source text: as §1, §6

Pre-emergence efficacy against GLXMA in % (Glycine max (GLXMA)) [%] | Post-emergence efficacy against TRZAS in % ([14]; application rate 80 g/ha) [%] | Structure (SMILES) | Pre-emergence efficacy against VIOTR in % (Viola tricolor (VIOTR) [1]; application rate 80 g/ha) [%] | Pre-emergence efficacy against VIOTR in % (Viola tricolor (VIOTR) [1]; application rate 320 g/ha) [%] | Pre-emergence efficacy against ECHCG ([2]; 320 g/ha) [%] | Pre-emergence efficacy against VERPE (Veronica persica (VERPE) [3]; 320 g/ha) [%] | Pre-emergence efficacy against POLCO ([4]; 320 g/ha) [%] | Pre-emergence efficacy against LOLRI (Lolium rigidum (LOLRI) [5]) [%] | Pre-emergence efficacy against ABUTH ([6]; 80 g/ha) [%] | Pre-emergence efficacy against ABUTH ([6]; 320 g/ha) [%] | Post-emergence efficacy against POLCO in % [7] [%] | Post-emergence efficacy against VIOTR in % (Viola tricolor (VIOTR) [8]; application rate 80 g/ha) [%] | Post-emergence efficacy against VIOTR in % (Viola tricolor (VIOTR) [8]; application rate 320 g/ha) [%] | Pre-emergence efficacy against SETVI (Setaria viridis (SETVI) [9]; 320 g/ha) [%] | Pre-emergence efficacy against AMARE ([10]; 80 g/ha) [%] | Pre-emergence efficacy against AMARE ([10]; 320 g/ha) [%] | Post-emergence efficacy against ABUTH in % ([11]; application rate 320 g/ha) [%] | Post-emergence efficacy against VERPE in % (Veronica persica (VERPE) [16]; application rate 80 g/ha) [%] | Post-emergence efficacy against VERPE in % (Veronica persica (VERPE) [16]; application rate 320 g/ha) [%] | Post-emergence efficacy against ECHCG in % ([17]; application rate 320 g/ha) [%] | also measured
20 | 20 | Cc1cccc(Oc2ncc(Cl)cn2)c1OS(=O)(=O)CCCCl [Example I-11] | 100 | 100 | 100 | 100 | 80 | 80 | 90 | 90 | 100 | 90 | 100 | 100 | 100 | 100 | 90 | 100 | 100 | 90 | Pre-emergence efficacy against ECHCG ([2]; 80 g/ha): 90%; Pre-emergence efficacy against VERPE (Veronica persica (VERPE) [3]; 80 g/ha): 100%; Pre-emergence efficacy against POLCO ([4]; 80 g/ha): 80%; Pre-emergence efficacy against SETVI (Setaria viridis (SETVI) [9]; 80 g/ha): 90%; Post-emergence efficacy against ABUTH in % ([11]; application rate 80 g/ha): 80%; Post-emergence efficacy against LOLRI in % (Lolium rigidum (LOLRI) [12]): 90%; Pre-emergence efficacy against MATIN [13]: 80%; Post-emergence efficacy against ALOMY in % [15]: 90%; Post-emergence efficacy against ECHCG in % ([17]; application rate 80 g/ha): 90%; Pre-emergence efficacy against ALOMY [18]: 90%; Pre-emergence efficacy against ORYSA in % (Oryza sativa (ORYSA)): 20%; Post-emergence efficacy against AMARE in % ([19]; application rate 80 g/ha): 90%; Post-emergence efficacy against AMARE in % ([19]; application rate 320 g/ha): 100%; Post-emergence efficacy against SETVI in % (Setaria viridis (SETVI) [20]): 100%; Pre-emergence efficacy against AVEFA (Avena fatua (AVEFA)): 90%; Post-emergence efficacy against ZEAMX in % (Zea mays (ZEAMX) [21]): 20%
10 | 0 | Cc1cccc(Oc2ncc(Cl)cn2)c1OS(=O)(=O)CCC(F)=C(F)F [Example I-71] | 100 | 100 | 100 | 90 | 100 | 80 | 80 | 100 | 100 | 90 | 100 | 100 | 100 | 100 | 100 | 80 | 100 | 90 | Post-emergence efficacy against PHBPU in % ([22]; application rate 80 g/ha): 80%; Post-emergence efficacy against PHBPU in % ([22]; application rate 320 g/ha): 90%; Post-emergence efficacy against KCHSC in % (Kochia scoparia (KCHSC) [23]; application rate 80 g/ha): 100%; Post-emergence efficacy against KCHSC in % (Kochia scoparia (KCHSC) [23]; application rate 320 g/ha): 100%; Pre-emergence efficacy against TRZAS in % [24]: 0%; Pre-emergence efficacy against KCHSC in % (Kochia scoparia (KCHSC) [25]): 100%; Pre-emergence efficacy against DIGSA [26]: 100%; Post-emergence efficacy against TRZAS in % ([14]; application rate 320 g/ha): 0%; Pre-emergence efficacy against ALOMY [18]: 80%; Post-emergence efficacy against AMARE in % ([19]; application rate 80 g/ha): 90%; Post-emergence efficacy against AMARE in % ([19]; application rate 320 g/ha): 100%; Post-emergence efficacy against SETVI in % (Setaria viridis (SETVI) [20]): 100%; Post-emergence efficacy against ZEAMX in % (Zea mays (ZEAMX) [21]): 0%; Pre-emergence efficacy against ZEAMX in % (Zea mays (ZEAMX) [27]): 0%
